US20220402935A1, “HETEROCYCLIC COMPOUND” (FIMECS, INC., priority 2019, published 2022)
Structures can show the parent of a compound that is named as a salt.

Experiments:
IRAK-M = molecular target: T1, IRAK-M (Homo sapiens, UniProt Q9Y616); assay: IRAK-M binding inhibitory activity (KINOMEscan active site-dependent competitive assay); parameters: purchased Eurofins Discover X; conditions: for remaining binding at 1 µM: concentration of the test compound 1 μM, first symbol of cell, read-out: IRAK-M binding inhibition activity % Ctrl; for IC50: second symbol of cell, read-out: IRAK-M binding inhibition IC50 value
T1 sequence (Q9Y616 1-596): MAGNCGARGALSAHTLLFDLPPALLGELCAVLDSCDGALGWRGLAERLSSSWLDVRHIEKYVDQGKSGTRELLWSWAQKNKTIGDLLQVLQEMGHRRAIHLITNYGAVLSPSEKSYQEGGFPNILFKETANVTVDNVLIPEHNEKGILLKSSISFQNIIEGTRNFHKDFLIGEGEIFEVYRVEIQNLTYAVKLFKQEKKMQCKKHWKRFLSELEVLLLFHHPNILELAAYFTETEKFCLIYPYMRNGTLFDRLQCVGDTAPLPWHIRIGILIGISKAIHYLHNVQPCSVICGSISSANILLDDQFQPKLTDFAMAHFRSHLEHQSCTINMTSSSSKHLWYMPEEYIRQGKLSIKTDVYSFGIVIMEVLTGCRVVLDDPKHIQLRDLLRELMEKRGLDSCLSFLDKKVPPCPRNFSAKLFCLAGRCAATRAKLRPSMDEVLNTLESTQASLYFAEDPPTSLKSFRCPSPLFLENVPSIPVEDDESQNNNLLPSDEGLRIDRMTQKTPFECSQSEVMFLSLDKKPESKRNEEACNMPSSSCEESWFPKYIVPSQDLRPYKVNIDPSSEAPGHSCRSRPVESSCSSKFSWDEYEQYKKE
How it was run: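 Active site-dependent competition binding assay (KINOMEscan) against human IRAK-M. Result expressed as % Ctrl = (compound signal − positive control signal)/(DMSO signal − positive control signal) × 100, where DMSO = 100% Ctrl and control compound = 0% Ctrl.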

[1] = molecular target: T2, human XIAP_BIR3 domain purified protein (Homo sapiens, UniProt P98170); assay: XIAP binding inhibitory activity (HTRF, b-Smac ligand); conditions: for IC50: second symbol of cell, read-out: XIAP binding inhibition IC50 value; for inhibition at 3 µM: concentration of the test compound 3 μM, first symbol of cell, read-out: XIAP binding inhibition rate
T2 construct: purchased R & D
Description: Human XIAP binding inhibitory activity was measured by the Homogeneous Time Resolved Fluorescence (HTRF) method with using commercially available human XIAP_BIR3 domain purified protein (R & D) and as a ligand a Smac N-terminal peptide (AVPIAQK (SEQ ID NO: 1)) (hereinafter referred to as “b-Smac”; Peptide Research Laboratories, Inc.) biotinylated at the C-terminus according to a conventional method.
The HTRF method will be described in detail below.
The test compound diluted with a reaction buffer (25 mM HEPES Buffer containing 100 mM NaCl, 0.1% BSA, and 0.1% triton X-100, pH 7.5) was added to a 384-well white shallow bottom plate (Greiner 784076) at 1 μL/well and flash centrifuged for 30 seconds. Subsequently, human XIAP_BIR3 domain purified protein was diluted with the reaction buffer to obtain a 90 nM sample diluent, and the resultant sample diluent was added to the above-mentioned white superficial plate at 4.5 μL/well and flash centrifuged for 30 seconds. Subsequently, b-Smac diluted to 90 nM with the reaction buffer was added to the above-mentioned white superficial plat at 4.5 μL/well and flash centrifuged for 30 seconds. A mixed solution of Anti-6 HIS-Cryptate (Eu^3+ Cryptate-conjugated mouse monoclonal antibody anti-6 Histidine; cisbio) and Streptavidin-XL^eat (Highgrade XL665-conjugated streptavidin; cisbio) both diluted 100-fold with HTRF detection buffer (cisbio) at a volume ratio of 1:1 was added to the above white superficial plate at 10 μL/well. After flash centrifuging the white shallow bottom plate for 30 seconds, the white shallow bottom plate was left at room temperature for 4 hours or more in the dark. The white superficial plate after being left was subjected to fluorescence intensity measurement (excitation wavelength: 320 nm, fluorescence wavelength: 665 nm and 615 nm) by EnVision (Perkin Elmer). The binding inhibition rate (%) was calculated based on the HTRF ratio in the presence of the test compound to the HTRF ratio in the absence of the test compound (fluorescence intensity at 665 nm/fluorescence intensity at 615 nm).
The XIAP binding inhibition rate (%) of test compounds was evaluated.

T2 sequence (P98170 252-356 limits assumed): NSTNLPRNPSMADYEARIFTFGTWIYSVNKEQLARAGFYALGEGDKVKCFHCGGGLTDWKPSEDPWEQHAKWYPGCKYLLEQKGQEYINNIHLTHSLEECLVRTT

| Structure (SMILES) | remaining binding at 1 µM (IRAK-M) [%] | IC50 [1] [nM] | IC50 (IRAK-M) [nM] | inhibition at 3 µM [1] [%] |
| --- | --- | --- | --- | --- |
| CN[C@@H](C)C(=O)N[C@@H](Cn1cccn1)C(=O)N1CCN(C(=O)c2c(C(=O)N(C)CCOCCOCCOc3cc(CN4CCC(Oc5ccnc6ccsc56)CC4)on3)c3cc(F)ccc3n2C)CC1 [Example 15, 5-fluoro-N,1-dimethyl-2-(4-((S)-2-((S)-2-(methylamino)propanamido)-3-(1H-pyrazol-1-yl)propanoyl)piperazine-1-carbonyl)-N-(2-(2-(2-((5-((4-(thieno[3,2-b]pyridin-7-yloxy)piperidin-1-yl)methyl)isoxazol-3-yl)oxy)ethoxy)ethoxy)ethyl)-1H-indole-3-carboxamide] | 25 to 50 | 300 to 3000 |  |  |
| CN[C@@H](C)C(=O)N[C@H](C(=O)N1CCN(C(=O)c2c(C(=O)N(C)CCOCCOCCOc3cc(CN4CCC(Oc5ccnc6ccsc56)CC4)on3)c3cc(F)ccc3n2C)CC1)C(C)(C)O [Example 16, 5-fluoro-2-(4-((S)-3-hydroxy-3-methyl-2-((S)-2-(methylamino)propanamido)butanoyl)piperazine-1-carbonyl)-N,1-dimethyl-N-(2-(2-(2-((5-((4-(thieno[3,2-b]pyridin-7-yloxy)piperidin-1-yl)methyl)isoxazol-3-yl)oxy)ethoxy)ethoxy)ethyl)-1H-indole-3-carboxamide] | 25 to 50 | 300 to 3000 |  |  |
| C[C@@H]1CN(CC(=O)N2CCN(C(=O)c3cc4cc(F)c(F)cc4n3C)C[C@H]2C)[C@@H](COCCOCCOCCOc2cc(CN3CCC(Oc4ccnc5ccsc45)CC3)on2)CN1 [Example 17, 1-((R)-4-(5,6-Difluoro-1-methyl-1H-indole-2-carbonyl)-2-methylpiperazin-1-yl)-2-((2R,5R)-5-methyl-2-((2-(2-(2-((5-((4-(thieno[3,2-b]pyridin-7-yloxy)piperidin-1-yl)methyl)isoxazol-3-yl)oxy)ethoxy)ethoxy)ethoxy)methyl)piperazin-1-yl)ethan-1-one hydrochloride] |  | < 300 | 300 to 1000 |  |
| Cc1cc2ccc(C(=O)N3CCN(C(=O)CN4C[C@@H](C)NC[C@@H]4COCCOCCOCCOc4cc(CN5CCC(Oc6ccnc7ccsc67)CC5)on4)CC3)cn2c1 [Example 18, 2-((2R,5R)-5-methyl-2-((2-(2-(2-((5-((4-(thieno[3,2-b]pyridin-7-yloxy)piperidin-1-yl)methyl)isoxazol-3-yl)oxy)ethoxy)ethoxy)ethoxy)methyl)piperazin-1-yl)-1-(4-(2-methylindolizine-6-carbonyl)piperazin-1-yl)ethan-1-one] |  | < 300 | 300 to 1000 |  |
| C[C@@H]1CN(CC(=O)N2CCN(C(=O)c3cc4cc(F)c(F)cc4n3C)C[C@H]2C)[C@@H](COCCOCCOCCOCCOc2cc(CN3CCC(Oc4ccnc5ccsc45)CC3)on2)CN1 [Example 19, 1-((R)-4-(5,6-difluoro-1-methyl-1H-indole-2-carbonyl)-2-methylpiperazin-1-yl)-2-((2R,5R)-5-methyl-2-(13-((5-((4-(thieno[3,2-b]pyridin-7-yloxy)piperidin-1-yl)methyl)isoxazol-3-yl)oxy)-2,5,8,11-tetraoxatridecyl)piperazin-1-yl)ethan-1-one] |  | 300 to 3000 | 300 to 1000 |  |
| C[C@@H]1CN(CC(=O)N2CCN(C(=O)c3cc4cc(F)c(F)cc4n3C)C[C@H]2C)[C@@H](COCCOCCOc2cc(CN3CCC(Oc4ccnc5ccsc45)CC3)on2)CN1 [Example 20, 1-((R)-4-(5,6-difluoro-1-methyl-1H-indole-2-carbonyl)-2-methylpiperazin-1-yl)-2-((2R,5R)-5-methyl-2-((2-(2-((5-((4-(thieno[3,2-b]pyridin-7-yloxy)piperidin-1-yl)methyl)isoxazol-3-yl)oxy)ethoxy)ethoxy)methyl)piperazin-1-yl)ethan-1-one] | 25 to 50 | 300 to 3000 |  |  |
| CN[C@@H](C)C(=O)N[C@H](C(=O)N1CCN(C(=O)c2c(OCCOCCOCCOc3cc(CN4CCC(Oc5ccnc6ccsc56)CC4)on3)c3cc(F)c(F)cc3n2C)CC1)C1CCCCC1 [Example 21, (S)-N-((S)-1-Cyclohexyl-2-(4-(5,6-difluoro-1-methyl-3-(2-(2-(2-((5-((4-(thieno[3,2-b]pyridin-7-yloxy)piperidin-1-yl)methyl)isoxazol-3-yl)oxy)ethoxy)ethoxy)ethoxy)-1H-indole-2-carbonyl)piperazin-1-yl)-2-oxoethyl)-2-(methylamino)propanamide hydrochloride] | 25 to 50 |  |  | 25 to 50 |
| CN[C@@H](C)C(=O)N[C@H](C(=O)N1CCN(C(=O)c2c(OCCOCCOc3cc(CN4CCC(Oc5ccnc6ccsc56)CC4)on3)c3cc(F)c(F)cc3n2C)CC1)C1CCCCC1 [Example 22, (S)-N-((S)-1-cyclohexyl-2-(4-(5,6-difluoro-1-methyl-3-(2-(2-((5-((4-(thieno[3,2-b]pyridin-7-yloxy)piperidin-1-yl)methyl)isoxazol-3-yl)oxy)ethoxy)ethoxy)-1H-indole-2-carbonyl)piperazin-1-yl)-2-oxoethyl)-2-(methylamino)propanamide] | 25 to 50 |  |  | 25 to 50 |
| CN[C@@H](C)C(=O)N[C@H](C(=O)N1CCN(C(=O)c2c(OCCOCCOCCOCCOc3cc(CN4CCC(Oc5ccnc6ccsc56)CC4)on3)c3cc(F)c(F)cc3n2C)CC1)C1CCCCC1 [Example 23, (S)-N-((S)-1-cyclohexyl-2-(4-(5,6-difluoro-1-methyl-3-(2-(2-(2-(2-((5-((4-(thieno[3,2-b]pyridin-7-yloxy)piperidin-1-yl)methyl)isoxazol-3-yl)oxy)ethoxy)ethoxy)ethoxy)ethoxy)-1H-indole-2-carbonyl)piperazin-1-yl)-2-oxoethyl)-2-(methylamino)propanamide] | 25 to 50 |  |  | 25 to 50 |
| CN[C@@H](C)C(=O)N[C@H](C(=O)N1CCN(C(=O)c2cc3cc(F)c(F)cc3n2CC(=O)N2CCC[C@@H]2COc2cc(CN3CCC(Oc4ccnc5ccsc45)CC3)on2)CC1)C1CCCCC1 [Example 31, (S)-N-((S)-1-cyclohexyl-2-(4-(5,6-difluoro-1-(2-oxo-2-((R)-2-(((5-((4-(thieno[3,2-b]pyridin-7-yloxy)piperidin-1-yl)methyl)isoxazol-3-yl)oxy)methyl)pyrrolidin-1-yl)ethyl)-1H-indole-2-carbonyl)piperazin-1-yl)-2-oxoethyl)-2-(methylamino)propanamide] | 25 to 50 |  |  | 25 to 50 |
| CN[C@@H](C)C(=O)N[C@H](C(=O)N1CCN(C(=O)c2cc3cc(F)ccc3n2CC(=O)N2C[C@@H](O)C[C@H]2COc2cc(CN3CCC(Oc4ccnc5ccsc45)CC3)on2)[C@@H](C)C1)C1CCCCC1 [Example 42, (S)-N-((S)-1-cyclohexyl-2-((S)-4-(5-fluoro-1-(2-((2S,4S)-4-hydroxy-2-(((5-((4-(thieno[3,2-b]pyridin-7-yloxy)piperidin-1-yl)methyl)isoxazol-3-yl)oxy)methyl)pyrrolidin-1-yl)-2-oxoethyl)-1H-indole-2-carbonyl)-3-methylpiperazin-1-yl)-2-oxoethyl)-2-(methylamino)propanamide] |  |  | 100 to 300 | > 25 |
| CN[C@@H](C)C(=O)N[C@H](C(=O)N1CCN(C(=O)c2cc3cc(F)c(F)cc3n2CC(=O)N2CCOC[C@@H]2COc2cc(CN3CCC(Oc4ccnc5ccsc45)CC3)on2)CC1)C1CCCCC1 [Example 45, (S)-N-((S)-1-cyclohexyl-2-(4-(5,6-difluoro-1-(2-oxo-2-((R)-3-(((5-((4-(thieno[3,2-b]pyridin-7-yloxy)piperidin-1-yl)methyl)isoxazol-3-yl)oxy)methyl)morpholino)ethyl)-1H-indole-2-carbonyl)piperazin-1-yl)-2-oxoethyl)-2-(methylamino)propanamide] | 25 to 50 | 3000 to 30000 |  |  |
